Experimental data taken from patent US20060035968A1, “Composition for preventing cancer comprising 2'-benzoyl-oxycinnamaldehyde” (Korea Research Institute of Bioscience and Biotechnology, priority 2004, published 2006).
“Also recorded” adds a separate entry of the source.

Key:
[1] = system: H-ras 12V-overexpressing mouse; assay: Effect of BCA on incidence of liver cancer in H-ras-overexpressing mouse (liver histology); type: in vivo
Description: A neonatal […] H-ras 12V-overexpressing mouse (KCTC 10318 BP) was intraperitoneally administered with 50 mg/kg of BCA (prepared by reacting 2′-hydroxy-cinnamaldehyde (HCA) isolated from the stem bark of C. cassia with benzoyl chloride in the presence of triethylamine) for ten weeks once every two days. Six months after birth, the liver tissue was excised from the mouse in an aseptic state, fixed with a formaldehyde solution, and embedded in paraffin. The resulting paraffin block was sectioned into a thickness of 4 μm using a microtome (LEICA Company), and tissue sections were attached onto slides. The tissue was then stained with hematoxylin/eosin and observed under a reverse phased microscope (Model: Bx 50, Olympus Company).

[2] = system: human retinal pigment epithelial (hRPE) cells; details: IOVS, 43(9), 3117-3124, 2002; cited from earlier work
[3] = biological target: farnesyl-protein transferase (Homo sapiens, UniProt P49356); details: in vitro; cited from earlier work
[4] = animal test, J. Toxicol. Pub. Health, 2003, 19, 259-266; cited from earlier work
[5] = system: proliferative vitreoretinopathy (PVR) model in rabbits; details: IOVS, 43(9), 3117-3124, 2002; cited from earlier work
angiogenesis = details: J. Biological Chemistry, 279(8), 6911-6920, 2004; cited from earlier work
[6] = system: H-ras 12V-overexpressing mouse; assay: Splenocyte number in H-ras-transgenic mouse; type: in vivo; details: 50 mg/kg i.p. once every two days for 10 weeks, Tg mouse vs control group (NTg), FIG. 3A
Description: A neonatal […] H-ras 12V-overexpressing mouse (KCTC 10318 BP) was intraperitoneally administered with 50 mg/kg of BCA and HCA (prepared by extracting the stem bark of C. cassia with organic solvents such as methanol and performing an isolation and purification process by various column chromatography methods) for ten weeks once every two days. Six months after birth, the spleen was excised from the mouse, and a single cell suspension was prepared. Red blood cells were removed from the single cell suspension using a RBC lysis solution (Sigma), and the number of splenocytes was counted under a microscope.

splenocytes = assay: Splenocyte proliferation by [3H]-thymidine after LPS or ConA stimulation; type: cell-based, mouse; details: splenocytes of treated mice stimulated with ConA, 48 hours, FIG. 3B
Description: On the other hand, 2×10^5 splenocytes were aliquotted into a 96-well plate, stimulated with a cell proliferation inducer, LPS (lipopolysaccharide) or ConA (concanavalin A), and cultured for 48 hours. 1 μCi of [^3H]-thymidine was added to each well, followed by incubation for 6 hours. Cells were harvested on a nitrocellulose membrane, and radiation activity was measured using a beta scintillation counter (Wallac, Turku, Finland) to investigate proliferation ability of splenocytes.

tumor cell growth = details: J. Biological Chemistry, 279(8), 6911-6920, 2004; cited from earlier work
[7] = 50 mg/kg i.p. once every two days for ten weeks, six months after birth

O=C/C=C/c1ccccc1OC(=O)c1ccccc1 [BCA, 2′-benzoyloxycinnamaldehyde]
portion progressed to cancer in the liver ([1]; 50 mg/kg i.p. once every two days for ten weeks from 4 months old, liver at six months, vs control FIG. 1A): remarkably reduced | number of immune cells in the liver [1, 7]: increased | tumor progression to liver cancer [1, 7]: inhibited | apoptosis in hRPE cells [2]: induces apoptosis | inhibition of farnesyl-protein transferase [3]: inhibit; also recorded: inhibitory effects | toxicity in vivo [4]: no toxicity | antiproliferative effect in PVR model [5]: antiproliferative effect | inhibition of angiogenesis (angiogenesis): inhibitory effects | cell number in the spleen (splenocyte number) [6]: increased cell number | cell number in the spleen (splenocyte number) ([6]; listed as BSA): largest increase | T cell response (splenocyte proliferation) (splenocytes): highest T cell response | inhibition of tumor cell growth (tumor cell growth): inhibitory effects

O=CC=Cc1ccccc1O [HCA, 2′-hydroxycinnamaldehyde, reference compound]
inhibition of farnesyl-protein transferase [3]: inhibitory effects | inhibition of angiogenesis (angiogenesis): inhibitory effects | cell number in the spleen (splenocyte number) [6]: increased cell number | inhibition of tumor cell growth (tumor cell growth): inhibitory effects
